Common to all, as to assay type: cell-based
For test [1], the system named is NCI-H522. Nature of the test: NCI-60 one-dose SRB screening. To be noted: Homo sapiens, NCI-H522, Non-Small Cell Lung Cancer, 10 µM one dose, 48 h, read-out: growth percentage.
Test [2] relates to SK-MEL-5. In words: NCI-60 one-dose SRB screening. The settings on record: Homo sapiens, SK-MEL-5, Melanoma, 10 µM one dose, 48 h, read-out: growth percentage.
Test [3] relates to NCI-H226. Nature of the test: NCI-60 one-dose SRB screening. The settings on record: Homo sapiens, NCI-H226, Non-Small Cell Lung Cancer, 10 µM one dose, 48 h, read-out: growth percentage.
Test [4] concerns TK-10. In words: NCI-60 one-dose SRB screening. The settings on record: Homo sapiens, TK-10, Renal Cancer, 10 µM one dose, 48 h, read-out: growth percentage.
Test [5] concerns A549/ATCC. In words: NCI-60 one-dose SRB screening. The settings on record: Homo sapiens, Non-Small Cell Lung Cancer, 10 µM one dose, 48 h, read-out: growth percentage.
Test [6] deals with LOX IMVI. In words: NCI-60 one-dose SRB screening. To be noted: Homo sapiens, Melanoma, 10 µM one dose, 48 h, read-out: growth percentage.
Test [7] deals with DU-145. In words: NCI-60 one-dose SRB screening. To be noted: Homo sapiens, DU-145, Prostate Cancer, 10 µM one dose, 48 h, read-out: growth percentage.
Test [8] has as its system OVCAR-8. Nature of the test: NCI-60 one-dose SRB screening. To be noted: Homo sapiens, OVCAR-8, Ovarian Cancer, 10 µM one dose, 48 h, read-out: growth percentage.
The subject of test [9] is U251. In words: NCI-60 one-dose SRB screening. To be noted: Homo sapiens, U-251, U251, CNS Cancer, 10 µM one dose, 48 h, read-out: growth percentage.
The subject of test [10] is RXF 393. In words: NCI-60 one-dose SRB screening. To be noted: Homo sapiens, RXF 393, Renal Cancer, 10 µM one dose, 48 h, read-out: growth percentage.
Test [11] relates to 786-0. In words: NCI-60 one-dose SRB screening. The settings on record: Homo sapiens, 786-0, Renal Cancer, 10 µM one dose, 48 h, read-out: growth percentage.
In test [12] the test system is MALME-3M. Nature of the test: NCI-60 one-dose SRB screening. To be noted: Homo sapiens, Melanoma, 10 µM one dose, 48 h, read-out: growth percentage.
The subject of test [13] is MOLT-4. Nature of the test: NCI-60 one-dose SRB screening. The settings on record: Homo sapiens, MOLT-4, Leukemia, 10 µM one dose, 48 h, read-out: growth percentage.
The test system of test [14] is MDA-MB-231/ATCC. Nature of the test: NCI-60 one-dose SRB screening. The settings on record: Homo sapiens, Breast Cancer, 10 µM one dose, 48 h, read-out: growth percentage.
Test [15] deals with CAKI-1. Nature of the test: NCI-60 one-dose SRB screening. The settings on record: Homo sapiens, CAKI-1, Renal Cancer, 10 µM one dose, 48 h, read-out: growth percentage.
Test [16] deals with M14. Nature of the test: NCI-60 one-dose SRB screening. To be noted: Homo sapiens, M14, Melanoma, 10 µM one dose, 48 h, read-out: growth percentage.
For test [17], the system named is IGROV1. In words: NCI-60 one-dose SRB screening. To be noted: Homo sapiens, IGROV-1, IGROV1, Ovarian Cancer, 10 µM one dose, 48 h, read-out: growth percentage.
The subject of test [18] is T-47D. Nature of the test: NCI-60 one-dose SRB screening. To be noted: Homo sapiens, T47D, Breast Cancer, 10 µM one dose, 48 h, read-out: growth percentage.
The test system of test [19] is UO-31. Nature of the test: NCI-60 one-dose SRB screening. To be noted: Homo sapiens, UO-31, Renal Cancer, 10 µM one dose, 48 h, read-out: growth percentage.
The test system of test [20] is SK-MEL-28. Nature of the test: NCI-60 one-dose SRB screening. To be noted: Homo sapiens, SK-MEL-28, Melanoma, 10 µM one dose, 48 h, read-out: growth percentage.
Test [21] deals with HCT-15. Nature of the test: NCI-60 one-dose SRB screening. The settings on record: Homo sapiens, HCT-15, Colon Cancer, 10 µM one dose, 48 h, read-out: growth percentage.
Test [22] relates to NCI-59 human cancer cell lines. In words: NCI-60 one-dose SRB screening, full panel and subpanels. To be noted: for activity at 10 µM / inhibition at 10 µM: Homo sapiens; for activity at 10 µM: mean over the full panel, 10 µM one dose, 48 h, SRB, read-out: growth percentage, Mean; for inhibition at 10 µM: read-out: mean growth inhibition % (MGI%, GI%).

The values that follow come from article PMC8880564, “Design, Synthesis, and Biological Evaluation of a Novel VEGFR-2 Inhibitor Based on a 1,2,5-Oxadiazole-2-Oxide Scaffold with MAPK Signaling Pathway Inhibition” (Pharmaceuticals, 2022).

As for `Cc1nn(-c2ccc(Br)cc2)c2nc(C(F)(F)F)nc(Nc3ccc(NCc4c(-c5ccccc5)no[n+]4[O-])cc3)c12` [12c, 3-(((4-((1-(4-bromophenyl)-3-methyl-6-(trifluoromethyl)-1H-pyrazolo[3,4-d]pyrimidin-4-yl)amino)phenyl)amino)methyl)-4-phenyl-1,2,5-oxadiazole 2-oxide], the activity at 10 µM stood at 83.5% in test [1]; 61.7% in test [2]; 75% in [3]; 109% in [4]; 82.4% in test [5]; 48.5% in test [6]. Also, the activity at 10 µM was determined as 84.8% in [7]; 75.8% in test [8]; 54.1% in test [9]; 89.2% in [10]; 88.1% in [11]; 77.7% in test [12]. For the same compound, the activity at 10 µM in test [13] worked out at 60.3%; in [14], 65.9%; in [15], 55%; in test [16] it was 71.9%; in test [17] it was 59.6%; in [18], 85.6%. The activity at 10 µM in test [19] was found to be 50.3%; in test [20], 89.5%; in test [21], 34.6%; in test [22], 74.8%.

Regarding `O=c1[nH]c(CCl)nc2c1cnn2-c1ccccc1` [13a], the activity at 10 µM came to 103% in [1]; 107% in test [2]; 110% in [3]; 154% in [4]; 98.5% in test [5]; 103% in [6]. In addition, the activity at 10 µM was 98.6% in [7]; 114% in [8]; 93.7% in test [9]; 94.1% in test [10]; 122% in test [11]; -38.5% in [12]. Also, the activity at 10 µM stood at 104% in [13]; 101% in test [14]; 97.6% in test [15]; 110% in test [16]; 96.2% in test [17]; 95.2% in test [18]. For the same compound, the activity at 10 µM is -20.9% in test [19], -89.8% in test [20], 99.9% in test [21] and 94.2% in test [22].

With `Cc1nn(-c2ccccc2)c2nc(CCl)[nH]c(=O)c12` [13b], the activity at 10 µM was found to be 89.8% in test [1]; 110% in [2]; 111% in [3]; 63.2% in test [4]; 97.7% in test [5]; 101% in test [6]. In addition, the activity at 10 µM in test [7] is 83.6%; in test [8] it was 112%; in test [9], 93.9%; in test [10], 99.2%; in test [11], 122%; in test [12] it was 2.09%. Moreover, the activity at 10 µM came to 79.6% in test [13]; 88.4% in [14]; 99.6% in test [15]; 103% in test [16]; 96.2% in [17]; 66% in [18]. The activity at 10 µM was -86.3% in [19], 105% in test [20], 90.6% in test [21] and 82.8% in test [22].

In general, inhibition refers to the change of the read-out against control, counted positive when it falls. As for `O=c1[nH]c(CNc2ccc(NCc3c(-c4ccccc4)no[n+]3[O-])cc2)nc2c1cnn2-c1ccccc1` [14a, 3-(((4-(((4-oxo-1-phenyl-4,5-dihydro-1H-pyrazolo[3,4-d]pyrimidin-6-yl)methyl)amino)phenyl)amino)methyl)-4-phenyl-1,2,5-oxadiazole 2-oxide], the activity at 10 µM in test [1] turned out to be 60.8%; in test [2] it was 85.3%; in [3], 77.2%; in test [4], 102%; in [5] it was 63.8%; in test [6], 85.5%. Further, the activity at 10 µM in test [7] is 74.6%; in [8], 109%; in test [9] it was 76.1%; in test [10], 98.4%; in test [11], 102%; in [12], 63.6%. Further, the activity at 10 µM in [13] was 44%; in test [14], 72.5%; in [15], 55.1%; in test [16] it was 80%; in test [17], 52.5%; in test [18], 42.5%. Also, the activity at 10 µM in test [19] was 55.9%; in test [20] it was 77.2%; in test [21], 71.2%; in [22] it was 72.1%. Also, in [22] (full NCI-59 panel, 10 µM), the inhibition at 10 µM amounted to 27.9%.

`Cc1nn(-c2ccccc2)c2nc(CNc3ccc(NCc4c(-c5ccccc5)no[n+]4[O-])cc3)[nH]c(=O)c12` [14b, 3-(((4-(((3-methyl-4-oxo-1-phenyl-4,5-dihydro-1H-pyrazolo[3,4-d]pyrimidin-6-yl)methyl)amino)phenyl)amino)methyl)-4-phenyl-1,2,5-oxadiazole 2-oxide]: the activity at 10 µM in test [1] came to 80.9%; in test [2] it was 108%; in test [3], 101%; in [4], 137%; in test [5], 74.3%; in test [6] it was 97.6%. In addition, the activity at 10 µM in test [7] was determined as 90.7%; in test [8] it was 117%; in test [9], 94.6%; in [10] it was 108%; in test [11] it was 125%; in test [12], 74.1%. Besides, the activity at 10 µM in test [13] came out at 61.5%; in test [14], 82.7%; in test [15], 67.1%; in test [16], 106%; in test [17] it was 64.4%; in [18], 75.5%. The activity at 10 µM in test [19] stood at 72.4%; in [20], 99.2%; in [21], 80.6%; in test [22] it was 91.8%. For the same compound, in [22] (full NCI-59 panel, 10 µM), the inhibition at 10 µM turned out to be 8.22%.

On to `Cc1nn(-c2ccc(Br)cc2)c2nc(CNc3ccc(NCc4c(-c5ccccc5)no[n+]4[O-])cc3)[nH]c(=O)c12` [14c, 3-(((4-(((1-(4-bromophenyl)-3-methyl-4-oxo-4,5-dihydro-1H-pyrazolo[3,4-d]pyrimidin-6-yl)methyl)amino)phenyl)amino)methyl)-4-phenyl-1,2,5-oxadiazole 2-oxide], for which the activity at 10 µM stood at 90.8% in [1]; 104% in test [2]; 109% in test [3]; 132% in test [4]; 97.4% in test [5]; 102% in [6]. The activity at 10 µM in test [7] came to 107%; in [8] it was 112%; in test [9], 99.1%; in test [10], 117%; in test [11] it was 119%; in [12], 92.5%. For the same compound, the activity at 10 µM in test [13] came out at 87.2%; in test [14], 96.5%; in test [15] it was 90.2%; in [16], 107%; in [17], 85.6%; in test [18] it was 103%. The activity at 10 µM in test [19] was 83.4%; in test [20], 103%; in [21] it was 97.3%; in [22], 103%. Moreover, the “enhancement of the growth percentage (mean)” value in test [22] (full NCI-59 panel, 10 µM) is given as 3.35%.
